From US9180106B2, “Sigma receptors ligands with anti-apoptotic and/or pro-apoptotic properties, over cellular mechanisms, exhibiting prototypical cytoprotective and also anti-cancer activity” (Anavex Life Sciences Corp., priority 2009, dated 2015)

Assays:
σ-2 receptors = σ-2 receptors (Homo sapiens, UniProt Q5BJF2); assay: affinity for σ-2 receptors; assay type: binding
ER stress = assay: protocols of acute or chronic ER and cellular stress, in vitro and in vivo; parameters: species or system mice
σ-1 receptors [1] = molecular target: T1, σ-1 receptors (Homo sapiens, UniProt Q99720); assay: affinity for σ-1 receptors; assay type: binding; conditions: read-out: affinity for σ-1 receptors (pKi) (converted)
T1 sequence (Q99720 whole entry): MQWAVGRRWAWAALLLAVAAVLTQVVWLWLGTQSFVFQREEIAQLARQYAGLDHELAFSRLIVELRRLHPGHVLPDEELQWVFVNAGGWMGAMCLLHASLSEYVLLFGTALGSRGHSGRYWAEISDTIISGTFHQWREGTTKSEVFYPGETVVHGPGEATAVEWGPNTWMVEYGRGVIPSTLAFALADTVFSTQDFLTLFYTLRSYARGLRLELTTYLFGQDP

σ-1 receptors [2] = molecular target: T1, σ-1 receptors; assay: agonistic/antagonistic action on σ-1 receptors
[3] = tested on: primary (drug resistant) melanoma; assay: in vivo anticancer activity in mice xenografts
From the text: All molecules present strong chemical affinities (sub-nanomolar to micromolar) for α-1 receptors with antagonistic action (except AdAE and AdPhAE which are weak agonists) and with nanomolar to micromolar affinities for α-2 receptors and agonistic action. Therefore, all molecules above and their derivatives are pro-apoptotic and only at very low concentrations or doses are anti-apoptotic. All molecules above are toxic to the cancer cells: colorectal, prostate, ovarian renal, pancreas, lung, gliomas, glioblastomas leukemia, lymphomas, melanomas, sarcomas and hepatoma, with antiproliferative and cytotoxic concentrations usually lower than 10 microMolar (μM), for more than 50 of the above derivatives. […] The pharmacological profile of the above molecules is totally prototypical and original giving the possibility of a therapeutic synergy with the clinically used anticancer drugs with simultaneous antagonism and protection against the most grave secondary effects i.e., neuropathic pain and disability induced by the clinically used anticancer drugs.

[4] = tested on: cancer cells: colorectal, prostate, ovarian renal, pancreas, lung, gliomas, glioblastomas leukemia, lymphomas, melanomas, sarcomas and hepatoma
[5] = tested on: scopolamine and dizocilpine (MK-801) induced amnesia or amyloid peptide β25-35 (Aβ25-35); assay: anti-amnesic action in mice; assay type: in vivo; conditions: per os (po)
Method: The above molecular profile is the basis for AE14 modulatory role over the G-protein coupled receptors (GPCRs) and its pharmacological properties: anti-amnesic action (antagonistic action against scopolamine and dizocilpine (MK-801) induced amnesia or amyloid peptide β25-35 (Aβ25-35), at low doses (from 0.03 mg/kg administered per os (po), in mice). This unique new profile of AE14: anti-apoptotic via agonistic sigma-1 regulation of the volume regulated chloride channels (VRCC), anti-oxidative stress via agonistic action on the sigma-1 receptors of the ER-mitochondrion.

[6] = tested on: primary (drug resistant) melanoma; assay: in vitro cytotoxicity, primary melanoma; assay type: cell-based
breast = assay: in vitro cytotoxicity, breast; assay type: cell-based
glioblastomas = assay: in vitro cytotoxicity, glioblastomas; assay type: cell-based
lung = assay: in vitro cytotoxicity, lung; assay type: cell-based
leukaemia = assay: in vitro cytotoxicity, leukaemia; assay type: cell-based
colon = assay: in vitro cytotoxicity, colon; assay type: cell-based
PTZ-induced tonic crises = assay: protection against pentylenetetrazole (PTZ) induced stress and tonic crises; conditions: in vitro or in vivo, on mice

Sequence of σ-2 receptors (Q5BJF2 whole entry): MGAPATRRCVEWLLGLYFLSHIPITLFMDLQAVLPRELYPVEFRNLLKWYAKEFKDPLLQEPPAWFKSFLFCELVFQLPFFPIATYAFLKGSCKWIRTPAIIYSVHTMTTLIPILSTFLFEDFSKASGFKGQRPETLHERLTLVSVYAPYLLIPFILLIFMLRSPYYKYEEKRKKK

SMILES: CN(C)CC1CCOC1(c1ccccc1)c1ccccc1 (centres unmarked) [AE37, Tetrahydro-N,N-Dtiviethyl-2,2-Dinienyl-3-Furanomethanamine]
- affinity for σ-2 receptors (σ-2 receptors): no affinity
- anti-apoptotic properties (ER stress; chronic ER and cellular stress, in vitro and in vivo on mice): high anti-apoptotic properties
- Ki (σ-1 receptors [1]): 501 nM
- action on σ-1 receptors (σ-1 receptors [2]): selective σ-1 agonist

SMILES: CCN(CC)CCCC(C)Nc1c2ccc(Cl)cc2nc2ccc(OC)cc12 (centres unmarked) [QNC, Quinacrine]
- in vivo anticancer activity [3]: outstanding in vivo activity

SMILES: COc1ccc(CCN2CCC(Nc3nc4ccccc4n3Cc3ccc(F)cc3)CC2)cc1 [AST, Astemizole]
- cytotoxicity, in vitro [4]: 3.0 to 5.0 µM

SMILES: CN(C)CC1COC(c2ccccc2)(c2ccccc2)C1 (centres unmarked) [AE14, Tetrahydro-N,N,-Dimethyl-5,5-Diphenyl-3-Furanomethanamine]
- Ki (σ-2 receptors): > 10 µM
- affinity for σ-2 receptors, times lower than for σ-1 (σ-2 receptors; σ-2 versus σ-1): more than 100 times
- anti-amnesic action, active doses [5]: ≥ 0.03 mg/kg
- effect on ER stress (ER stress; acute or chronic cellular stress, oligopeptides or streptozocin, in vitro and in vivo on mice): antagonized the ER stress
- Ki (σ-1 receptors [1]): 25.1 nM

SMILES: CN(C)/N=N/c1[nH]cnc1C(N)=O [Dacarbazine]
- in vivo anticancer activity [3]: inactive

SMILES: CN(C)CC1COC2(C1)C1CC3CC(C1)CC2C3 (centres unmarked) [AdAE, (DIHYDRO-4-(DIMETHYLAMINOMETHYL)SPIRO {FURANE-2(3H),2′-TRICYCLO[3.3.1.13,7]DECANE}]
- action on σ-1 receptors (σ-1 receptors [2]): weak agonists

SMILES: CN(C)c1ccc2nc3ccc(=[N+](C)C)cc-3sc2c1 [MB, Methylene blue]
- cytotoxicity, in vitro [6]: lower than 1.0 μM
- cytotoxicity, in vitro (breast): ~2.0 µM
- cytotoxicity, in vitro (glioblastomas): ~2.0 µM
- cytotoxicity, in vitro (lung): lower than 1.0 μM
- cytotoxicity, in vitro (leukaemia): lower than 1.0 μM
- cytotoxicity, in vitro (colon): ~2.0 µM
- in vivo anticancer activity [3]: confirmed in vivo

SMILES: CNCC1CCOC1(c1ccccc1)c1ccccc1 (centres unmarked) [AE37 Met, Tetrahydro-N-Methyl-2,2-Diphenyl-3-Furanomethanamine]
- protection against ER-mitochondrion anoxia and oxidative stress caused by PTZ (PTZ-induced tonic crises): exceptional protection
- activity relative to AE37 (ER stress; for the properties mentioned for AE37): slightly more active than AE37

SMILES: CN(C)CC1COC(c2ccccc2)(C23CC4CC(CC(C4)C2)C3)C1 (centres unmarked) [AdPhAE, 5-(TRICYCLO[3.3.1.13,7]DEC-1-YL)-TETRAHYDRO-N,N-DIMETHYL-5-PHENYL-3-FURANEMETHANAMINE]
- action on σ-1 receptors (σ-1 receptors [2]): weak agonists
